Measured values: patent publication US9156796B2, “Benzoimidazole-carboxylic acid amide derivatives as APJ receptor modulators” (SANOFI, priority 2013, dated 2015)

molecular target: T1, human apelin receptor (Homo sapiens, UniProt P35414); assay: Determination of agonism on the human apelin receptor by a calcium fluorescence assay (FLIPR); assay type: cell-based; settings: HEK293 cells stably transfected with human apelin receptor and Giaq protein, Fluo-4 calcium fluorescence, read-out: EC50 (APJ agonism)
T1 construct: expressed in transfected cells
T1 sequence (P35414 1-380): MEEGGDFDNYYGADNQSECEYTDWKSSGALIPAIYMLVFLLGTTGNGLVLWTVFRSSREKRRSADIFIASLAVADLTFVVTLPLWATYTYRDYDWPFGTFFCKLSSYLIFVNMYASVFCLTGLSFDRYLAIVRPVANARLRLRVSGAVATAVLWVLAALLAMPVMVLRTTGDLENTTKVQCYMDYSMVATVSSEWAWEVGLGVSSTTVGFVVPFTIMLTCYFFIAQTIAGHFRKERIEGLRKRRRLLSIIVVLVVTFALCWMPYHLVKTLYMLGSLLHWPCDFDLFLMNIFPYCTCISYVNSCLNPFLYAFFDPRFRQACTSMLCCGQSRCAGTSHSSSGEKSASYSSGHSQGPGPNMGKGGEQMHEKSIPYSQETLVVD
In short: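 HEK293 cells stably co-expressing human apelin receptor and promiscuous Giaq, loaded 1 h at 37 °C with Fluo-4 (4 μM) in probenecid-containing Hepes buffer, pH 7.4. Compounds, at least 7 concentrations in triplicate, added in FLIPR Tetra; peak calcium fluorescence normalized to 1 μM apelin-13 as 100% to derive EC50.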

First: CCCC[C@H](NC(=O)c1ccc2c(c1)nc(Cc1cccs1)n2C1CCCCC1C)C(=O)O (single isomer, unassigned) [Example 420]
Second: CC[C@H](C)[C@@H](CC(=O)O)NC(=O)c1ccc2c(c1)nc(Cc1cccs1)n2[C@@H]1CCCC[C@H]1C [Example 53, (3R,4S)-4-Methyl-3-{[1-((1R,2R)-2-methyl-cyclohexyl)-2-thiophen-2-ylmethyl-1H-benzoimidazole-5-carbonyl]-amino}-hexanoic acid]
The EC50 of the first is 3.4-fold lower: 14 nM for the first, 48 nM for the second. The first is the more potent here.

Compared with CC(C)C[C@H](NC(=O)c1ccc2c(c1)nc(Cc1ccsc1)n2C1CCCCC1C)C(=O)O (stereo partly drawn) [Example 139, (S)-4-Methyl-2-{[1-(2-methyl-cyclohexyl)-2-thiophen-3-ylmethyl-1H-benzoimidazole-5-carbonyl]-amino}-pentanoic acid], CC(C)C[C@H](NC(=O)c1ccc2c(c1)nc(Cc1cccs1)n2C1CCCCC1C(F)(F)F)C(=O)O (stereo partly drawn) [Example 87, (S)-4-Methyl-2-{[2-thiophen-2-ylmethyl-1-(2-trifluoromethyl-cyclohexyl)-1H-benzoimidazole-5-carbonyl]-amino}-pentanoic acid] is 3.1-fold higher in EC50: 285 nM for the first, 882 nM for the second. The first is the more potent here.

First: CCC(CC)n1c(Cc2cccs2)nc2cc(C(=O)N[C@@H](CC(C)C)C(=O)N3CC(C(=O)O)C3)ccc21 [Example 411, 1-((S)-2-{[1-(1-Ethyl-propyl)-2-thiophen-2-ylmethyl-1H-benzoimidazole-5-carbonyl]-amino}-4-methyl-pentanoyl)-azetidine-3-carboxylic acid]
Second: CCC(CC)n1c(Cc2cccs2)nc2cc(C(=O)N[C@@H](CC(C)C)C(=O)NCC(=O)O)ccc21 [Example 408, ((S)-2-{[1-(1-Ethyl-propyl)-2-thiophen-2-ylmethyl-1H-benzoimidazole-5-carbonyl]-amino}-4-methyl-pentanoylamino)-acetic acid]
The EC50 of the first is 1.8-fold higher: 822 nM for the first, 447 nM for the second.

Compared with CCC(CC)n1c(Cc2cccs2)nc2cc(C(=O)N[C@@H](CC(C)C)C(=O)NCC(C)(C)CN3CCCCCC3)ccc21 [Example 287, 1-(1-Ethyl-propyl)-2-thiophen-2-ylmethyl-1H-benzoimidazole-5-carboxylic acid [(S)-1-(3-azepan-1-yl-2,2-dimethyl-propylcarbamoyl)-3-methyl-butyl]-amide], CCC(CC)n1c(Cc2cccs2)nc2cc(C(=O)N[C@@H](CC(C)C)C(=O)NCCCN3CCCC3)ccc21 [Example 241, 1-(1-Ethyl-propyl)-2-thiophen-2-ylmethyl-1H-benzoimidazole-5-carboxylic acid [(S)-3-methyl-1-(3-pyrrolidin-1-yl-propylcarbamoyl)-butyl]-amide] is 1.6-fold lower in EC50: 408 nM for the first, 257 nM for the second.

Compared with CCC(CC)n1c(Cc2cccs2)nc2cc(C(=O)NC(CC(=O)O)C3CCCCC3)ccc21 (stereo not shown) [Example 44, 3-Cyclohexyl-3-{[1-(1-ethyl-propyl)-2-thiophen-2-ylmethyl-1H-benzoimidazole-5-carbonyl]-amino}-propionic acid], CCCCC(CC(=O)O)NC(=O)c1ccc2c(c1)nc(Cc1cccs1)n2C(CC)CC (single isomer, unassigned) [Example 453] is 3-fold higher in EC50: 258 nM for the first, 781 nM for the second.

Going from CCC(CC)n1c(Cc2cccs2)nc2cc(C(=O)N[C@@H](CC(C)C)C(=O)NCC3COCCO3)ccc21 (stereo partly drawn) [Example 393, 1-(1-Ethyl-propyl)-2-thiophen-2-ylmethyl-1H-benzoimidazole-5-carboxylic acid {(S)-1-[([1,4]dioxan-2-ylmethyl)-carbamoyl]-3-methyl-butyl}-amide] to CCC(CC)n1c(Cc2cccs2)nc2cc(C(=O)N[C@@H](CC(C)C)C(=O)NCC3CCN(CCOC)C3)ccc21 (stereo partly drawn) [Example 305, 1-(1-Ethyl-propyl)-2-thiophen-2-ylmethyl-1H-benzoimidazole-5-carboxylic acid ((S)-1-{[1-(2-methoxy-ethyl)-pyrrolidin-3-ylmethyl]-carbamoyl}-3-methyl-butyl)-amide], the EC50 falls from 1360 nM to 319 nM (4.3-fold).

Going from CC(C)C[C@@H](CC(=O)O)NC(=O)c1ccc2c(c1)nc(Cc1ccco1)n2C1CCCCC1C (single isomer, unassigned) [Example 435] to C[C@H]1CCCC[C@@H]1n1c(Cc2cccs2)nc2cc(C(=O)NC(CC(=O)O)CC3CCCCC3)ccc21 (stereo partly drawn) [Example 52, 4-Cyclohexyl-3-{[1-((1S,2S)-2-methyl-cyclohexyl)-2-thiophen-2-ylmethyl-1H-benzoimidazole-5-carbonyl]-amino}-butyric acid], the EC50 rises from 226 nM to 12300 nM (54-fold).

CCC(CC)n1c(Cc2cccs2)nc2cc(C(=O)N[C@@H](CC(C)C)C(=O)N3CCC(COC)CC3)ccc21 [Example 374, 1-(1-Ethyl-propyl)-2-thiophen-2-ylmethyl-1H-benzoimidazole-5-carboxylic acid [(S)-1-(4-methoxymethyl-piperidine-1-carbonyl)-3-methyl-butyl]-amide] and CCC(CC)n1c(Cc2cccs2)nc2cc(C(=O)N[C@@H](CC(C)C)C(=O)NC3CCN(CC4CCCCC4)CC3)ccc21 [Example 344, 1-(1-Ethyl-propyl)-2-thiophen-2-ylmethyl-1H-benzoimidazole-5-carboxylic acid [(S)-1-(1-cyclohexylmethyl-piperidin-4-ylcarbamoyl)-3-methyl-butyl]-amide] are within 1.5-fold of each other in EC50: 2180 nM for the first, 1690 nM for the second.

Going from CCC(CC)n1c(CC2CCCC2)nc2cc(C(=O)N[C@@H](CC3CCCCC3)C(=O)O)ccc21 [Example 3, (S)-3-Cyclohexyl-2-{[2-cyclopentylmethyl-1-(1-ethyl-propyl)-1H-benzoimidazole-5-carbonyl]-amino}-propionic acid] to CCC(CC)n1c(CC2CCCC2)nc2cc(C(=O)N[C@H](CO)C(C)C)ccc21 [Example 187, 2-Cyclopentylmethyl-1-(1-ethyl-propyl)-1H-benzoimidazole-5-carboxylic acid ((S)-1-hydroxymethyl-2-methyl-propyl)-amide], the EC50 rises from 1200 nM to 29000 nM (24-fold).

Going from CCC(CC)n1c(Cc2cccs2)nc2cc(C(=O)N[C@@H](CC(C)C)C(=O)NCc3ccco3)ccc21 [Example 221, 1-(1-Ethyl-propyl)-2-thiophen-2-ylmethyl-1H-benzoimidazole-5-carboxylic acid {(S)-1-[(furan-2-ylmethyl)-carbamoyl]-3-methyl-butyl}-amide] to CCC(CC)n1c(Cc2cccs2)nc2cc(C(=O)N[C@@H](CC(C)C)C(=O)NCc3ncco3)ccc21 [Example 254, 1-(1-Ethyl-propyl)-2-thiophen-2-ylmethyl-1H-benzoimidazole-5-carboxylic acid {(S)-3-methyl-1-[(oxazol-2-ylmethyl)-carbamoyl]-butyl}-amide], the EC50 falls from 1830 nM to 233 nM (7.9-fold).

Compared with CCC(CC)n1c(Cc2cccs2)nc2cc(C(=O)NC(CCc3ccccc3)C(=O)O)ccc21 (stereo not shown) [Example 28, 2-{[1-(1-Ethyl-propyl)-2-thiophen-2-ylmethyl-1H-benzoimidazole-5-carbonyl]-amino}-4-phenyl-butyric acid], CCC(CC)n1c(Cc2cccs2)nc2cc(C(=O)N[C@@H](CC(C)C)C(=O)NCc3ccccc3)ccc21 [Example 220, 1-(1-Ethyl-propyl)-2-thiophen-2-ylmethyl-1H-benzoimidazole-5-carboxylic acid ((S)-1-benzylcarbamoyl-3-methyl-butyl)-amide] is 6.5-fold lower in EC50: 18500 nM for the first, 2860 nM for the second. The second is the more potent here.

Going from CCC(CC)n1c(Cc2cccs2)nc2cc(C(=O)N[C@@H](CC(C)C)C(=O)NCC3CCCN(Cc4ccccc4)C3)ccc21 (stereo partly drawn) [Example 286, 1-(1-Ethyl-propyl)-2-thiophen-2-ylmethyl-1H-benzoimidazole-5-carboxylic acid {(S)-1-[(1-benzyl-piperidin-3-ylmethyl)-carbamoyl]-3-methyl-butyl}-amide] to CCC(CC)n1c(Cc2cccs2)nc2cc(C(=O)N[C@@H](CC(C)C)C(=O)NC3CCN(Cc4ccccc4)CC3)ccc21 [Example 313, 1-(1-Ethyl-propyl)-2-thiophen-2-ylmethyl-1H-benzoimidazole-5-carboxylic acid [(S)-1-(1-benzyl-piperidin-4-ylcarbamoyl)-3-methyl-butyl]-amide], the EC50 rises from 1100 nM to 1890 nM (1.7-fold).

Going from CCCCC(NC(=O)c1ccc2c(c1)nc(Cc1cccs1)n2C(CC)CC)C(C)(C)C(=O)O (stereo not shown) [Example 58, 3-{[1-(1-Ethyl-propyl)-2-thiophen-2-ylmethyl-1H-benzoimidazole-5-carbonyl]-amino}-2,2-dimethyl-heptanoic acid] to CCC(CC)n1c(Cc2cccs2)nc2cc(C(=O)N[C@@H](CC(C)C)C(=O)NCc3ccc(F)cc3)ccc21 [Example 244, 1-(1-Ethyl-propyl)-2-thiophen-2-ylmethyl-1H-benzoimidazole-5-carboxylic acid [(S)-1-(4-fluoro-benzylcarbamoyl)-3-methyl-butyl]-amide], the EC50 rises from 172 nM to 4280 nM (25-fold).

Going from CCC(CC)n1c(Cc2cccs2)nc2cc(C(=O)N[C@@H](CC(C)C)C(=O)N3CCN(Cc4ccc5c(c4)OCO5)CC3)ccc21 [Example 311, 1-(1-Ethyl-propyl)-2-thiophen-2-ylmethyl-1H-benzoimidazole-5-carboxylic acid [(S)-1-(4-benzo[1,3]dioxol-5-ylmethyl-piperazine-1-carbonyl)-3-methyl-butyl]-amide] to C[C@@H]1CCCC[C@H]1n1c(Cc2cncs2)nc2cc(C(=O)NC(CC(=O)O)CC3CCCCC3)ccc21 (stereo partly drawn) [Example 65, 4-Cyclohexyl-3-{[1-((1R,2R)-2-methyl-cyclohexyl)-2-thiazol-5-ylmethyl-1H-benzoimidazole-5-carbonyl]-amino}-butyric acid], the EC50 falls from 21200 nM to 56 nM (380-fold).
